Values quoted from earlier work, collected in US11413253B2, “Nanoparticle delivery systems” (Celator Pharmaceuticals, Inc., priority 2015, dated 2022).

Conditions: shown in the art

CCNC(=O)c1noc(-c2cc(C(C)C)c(O)cc2O)c1-c1ccc(CN2CCOCC2)cc1 [free AUY922, AUY922]
plasma clearance of free drug: cleared quite rapidly

CC(=O)O[C@@]12CO[C@@H]1C[C@H](O)[C@@]1(C)C(=O)[C@H](O)C3=C(C)[C@@H](OC(=O)[C@H](O)[C@@H](NC(=O)OC(C)(C)C)c4ccccc4)C[C@@](O)([C@@H](OC(=O)c4ccccc4)[C@H]21)C3(C)C [free docetaxel, docetaxel]
plasma clearance of free drug: cleared quite rapidly
